Measurements: patent US20130289056A1, “METHODS OF ADMINISTERING AN EGFR INHIBITOR” (Boehringer Ingelheim International GmbH, priority 2010, published 2013)

Key:
[1] = Phase I two-way crossover trial: effect of ritonavir on pharmacokinetics of BIBW 2992
[2] = molecular target: T1, P-glycoprotein (a.k.a. MDR1, ABCB1) (Homo sapiens, UniProt P08183); experiment: Inhibition of P-gp by BIBW 2992; assay type: in vitro ADME; conditions: mean of two independent experiments; read-out: estimated Ki as inhibitor of P-gp
Description: (§1) Passive Permeability through CaCo-2 Cell Layers and P-gp Transport Profiling: […]

[3] = molecular target: T2, CYP3A4 (Homo sapiens, UniProt P08684); experiment: CYP3A4-catalysed metabolism of BIBW 2992 in vivo (previous studies)
T2 construct: host or cells: healthy volunteers (in vivo)

[4] = in vivo; cited from earlier work
[5] = test system: CaCo-2 cell layers; experiment: Passive permeability through CaCo-2 cell layers; assay type: in vitro ADME
Description: as §1

[6] = molecular target: T1, P-glycoprotein (a.k.a. MDR1, ABCB1); experiment: P-gp transport profiling (substrate); assay type: in vitro ADME; conditions: in vitro
Description: as §1

[7] = molecular target: P-glycoprotein (MDR1, ABCB1) (Homo sapiens, UniProt P08183); experiment: P-gp transport profiling (substrate); assay type: in vitro ADME; conditions: human, Caco-2 cell layers; estimated
Description: as §1

T2 sequence (P08684 whole entry): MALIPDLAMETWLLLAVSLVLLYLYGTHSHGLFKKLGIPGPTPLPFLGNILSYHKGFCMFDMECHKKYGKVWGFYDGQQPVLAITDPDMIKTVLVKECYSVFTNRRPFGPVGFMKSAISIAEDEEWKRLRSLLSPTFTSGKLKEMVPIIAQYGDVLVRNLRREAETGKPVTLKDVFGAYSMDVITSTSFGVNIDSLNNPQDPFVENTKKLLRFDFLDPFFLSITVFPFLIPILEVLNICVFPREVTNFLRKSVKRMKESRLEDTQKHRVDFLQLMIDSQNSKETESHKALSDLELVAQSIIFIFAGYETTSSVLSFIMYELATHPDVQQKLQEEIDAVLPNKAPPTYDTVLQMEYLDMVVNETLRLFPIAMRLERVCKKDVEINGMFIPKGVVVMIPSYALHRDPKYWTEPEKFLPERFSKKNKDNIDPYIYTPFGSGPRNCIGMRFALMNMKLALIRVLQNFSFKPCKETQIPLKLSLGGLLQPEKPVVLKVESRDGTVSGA
T1 sequence (P08183 whole entry): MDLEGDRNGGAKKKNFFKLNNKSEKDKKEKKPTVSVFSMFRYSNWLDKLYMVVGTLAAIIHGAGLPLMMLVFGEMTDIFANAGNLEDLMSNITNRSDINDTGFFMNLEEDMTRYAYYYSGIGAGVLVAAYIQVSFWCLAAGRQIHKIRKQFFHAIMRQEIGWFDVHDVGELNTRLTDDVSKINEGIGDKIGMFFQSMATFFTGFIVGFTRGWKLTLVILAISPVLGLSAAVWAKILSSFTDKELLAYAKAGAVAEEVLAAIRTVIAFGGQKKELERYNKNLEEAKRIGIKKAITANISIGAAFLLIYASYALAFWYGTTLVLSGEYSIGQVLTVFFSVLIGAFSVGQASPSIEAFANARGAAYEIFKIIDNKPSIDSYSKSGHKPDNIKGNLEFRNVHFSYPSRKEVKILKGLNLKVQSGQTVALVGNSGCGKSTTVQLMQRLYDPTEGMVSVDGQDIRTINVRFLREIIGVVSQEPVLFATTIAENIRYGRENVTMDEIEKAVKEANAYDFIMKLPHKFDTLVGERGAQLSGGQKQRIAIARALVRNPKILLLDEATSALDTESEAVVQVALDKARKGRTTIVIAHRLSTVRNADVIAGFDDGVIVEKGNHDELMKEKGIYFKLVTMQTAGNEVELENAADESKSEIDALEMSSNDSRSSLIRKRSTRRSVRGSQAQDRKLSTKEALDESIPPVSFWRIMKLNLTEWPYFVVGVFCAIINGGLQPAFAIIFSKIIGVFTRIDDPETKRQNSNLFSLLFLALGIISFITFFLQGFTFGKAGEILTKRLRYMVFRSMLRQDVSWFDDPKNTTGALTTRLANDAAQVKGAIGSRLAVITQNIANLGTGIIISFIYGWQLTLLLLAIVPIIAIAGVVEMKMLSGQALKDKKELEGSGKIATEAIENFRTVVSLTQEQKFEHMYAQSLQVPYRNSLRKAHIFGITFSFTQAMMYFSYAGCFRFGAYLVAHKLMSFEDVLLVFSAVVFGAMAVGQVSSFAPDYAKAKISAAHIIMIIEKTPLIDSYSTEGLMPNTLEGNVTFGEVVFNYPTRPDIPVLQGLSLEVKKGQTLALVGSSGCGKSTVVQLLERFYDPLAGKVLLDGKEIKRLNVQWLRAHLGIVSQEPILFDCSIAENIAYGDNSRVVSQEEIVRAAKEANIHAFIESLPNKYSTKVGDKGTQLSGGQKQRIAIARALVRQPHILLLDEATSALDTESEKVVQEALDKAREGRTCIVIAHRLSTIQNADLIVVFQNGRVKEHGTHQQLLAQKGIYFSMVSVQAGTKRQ
Chain of P-glycoprotein (MDR1, ABCB1) (P08183 whole entry): as above

AUC0-∞ increase compared with BIBW 2992 given alone ([1]; BIBW 2992 20 mg oral with ritonavir 200 mg twice daily, healthy male volunteers, 90% CI 133.7%, 162.9%): 47.6%
AUC0-tz increase compared with BIBW 2992 given alone ([1]; BIBW 2992 20 mg oral with ritonavir 200 mg twice daily, healthy male volunteers, 90% CI 134.5%, 165.1%): 49.0%
Tmax ([1]; male, human, in vivo, oral, 20 mg): 4 h
terminal half-life, effect of ritonavir cotreatment ([1]; with ritonavir 200 mg bid vs alone): unchanged
Ki [2]: 3.4 µM
CYP3A4-dependent N-demethylation ([3]; healthy volunteers): too low to be quantitatively detected
role of CYP3A4 enzyme-catalysed metabolic reactions for metabolism ([3]; in vivo): subordinate role
passive permeability [5]: high
P-gp substrate status [6]: substrate of P-gp
Km [7]: 10 to 30 µM
SMILES: CN(C)C/C=C/C(=O)Nc1cc2c(Nc3ccc(F)c(Cl)c3)ncnc2cc1O[C@H]1CCOC1.O=C(O)/C=C\C(=O)O.O=C(O)/C=C\C(=O)O [BIBW 2992, 4-[(3-chloro-4-fluorophenyl)amino]-6-{[4-(N,N-dimethylamino)-1-oxo-2-buten-1-yl]amino}-7-((S)-tetrahydrofuran-3-yloxy)-quinazoline]
dose dependence of exposure [4]: more than dose-proportional increase in exposure
